The text below walks through data of patent US12344610B2, “APOL1 inhibitors and methods of use” (Maze Therapeutics, Inc., priority 2022, dated 2025).

Common to all, as to type: cell-based
In assay [1] the test system is HEK293 clonal cell line overexpressing APOL1 G1. In words: APOL1 G1 HEK293 cell rescue assay (Example B3). Conditions: Homo sapiens, HEK293, HEK293 clonal line overexpressing APOL1 G1; geometric mean of at least 2 runs; † = single run; ¥ = concentration at 50% rescue estimated (no sigmoidal curve). The procedure, abridged:
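Rescue of cell death caused by APOL1 G1 overexpression was measured in a clonal HEK293 line. Compounds were tested in duplicate on one plate, and EC50s were geometric means across at least two runs on different days. Some values are estimated 50%-rescue concentrations where curve fitting failed.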

The target of the next assay is T1, APOL1 G2 (Homo sapiens, UniProt O14791, DEL388-389).
T1 construct: expressed in transfected cells; host or cells: HEK293 T-REx clonal line stably expressing GCaMP6f (HEK T-REx/GCaMP6f/APOL1 G2 K6.3), doxycycline induced
T1 sequence (O14791 with tags, fused parts or gaps DEL388-389): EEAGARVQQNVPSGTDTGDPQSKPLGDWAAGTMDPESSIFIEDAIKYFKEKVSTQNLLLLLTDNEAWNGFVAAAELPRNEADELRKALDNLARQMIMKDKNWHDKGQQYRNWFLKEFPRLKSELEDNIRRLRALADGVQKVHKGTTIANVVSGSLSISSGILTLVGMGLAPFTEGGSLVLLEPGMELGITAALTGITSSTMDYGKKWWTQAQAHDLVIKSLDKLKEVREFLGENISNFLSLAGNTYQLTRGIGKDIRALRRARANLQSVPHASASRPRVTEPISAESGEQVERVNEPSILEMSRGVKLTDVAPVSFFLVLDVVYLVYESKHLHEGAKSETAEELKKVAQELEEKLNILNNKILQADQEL
Briefly: APOL1-mediated calcium transport (calcium influx) assay, HEK T-REx/GCaMP6f/APOL1 G2 K6.3 cells, FLIPR TETRA. Conditions: prevention of calcium influx; geometric mean of at least 2 assay runs; † = average of a technical replicate from a single assay run. The method in brief: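 A HEK293 T-REx clone stably expressing GCaMP6f had APOL1 G2 induced with doxycycline (20 ng/mL solution added) for 6 h. Cells were then washed into Ca2+-free Tyrode's buffer (pH 7.4) and preincubated with compounds (duplicate 8-point) for 10 min at room temperature. Ca2+ injection to 5 mM final produced FLIPR GCaMP fluorescence, giving AC50 for influx inhibition (geometric mean, ≥2 runs).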

Assay [2] has as its system HEK293 cells overexpressing APOL1 G2. In words: APOL1 G2 HEK293 cell rescue assay (reversal of cell death caused by overexpression of APOL1). To be noted: Homo sapiens, HEK293, HEK293 overexpressing APOL1 G2; geometric mean of at least 2 assay runs; † = single assay run. The method in brief:
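Each compound tested in duplicate wells on one plate per run, with values usually the geometric mean across at least two runs on different days, occasionally from one run only. Read-out: concentration giving half-maximal rescue of APOL1 G2 overexpression-induced death of HEK293 cells.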

With `N#Cc1ccc2c(c1)C1(CCN(CCOc3ccc(C4(C(=O)N5CCC5)COC4)cc3)CC1)C(=O)N2` [Compound 253, 1′-(2-{4-[3-(azetidine-1-carbonyl)oxetan-3-yl]phenoxy}ethyl)-2-oxo-1,2-dihydrospiro[indole-3,4′-piperidine]-5-carbonitrile], the EC50 in assay [1] was around 4.4 µM; in assay [2] it was 0.608 µM. In addition, on APOL1 G2, the AC50 was determined as 1.22 µM.

On to `O=C1Cc2cc(OCCN3CCC4(CC3)C(=O)Nc3ccc(Cl)cc34)cc(F)c2N1` [Compound 256, 5-chloro-1′-{2-[(7-fluoro-2-oxo-2,3-dihydro-1H-indol-5-yl)oxy]ethyl}-1,2-dihydrospiro[indole-3,4′-piperidin]-2-one], for which the EC50 in assay [1] was 0.116 µM; in assay [2], 0.0446 µM. Moreover, the AC50 at APOL1 G2 came to 0.261 µM.

In the case of `CC(C)(C(N)=O)c1ccc(OCCN2CCC3(CC2)C(=O)Nc2ccc(C#N)cc23)cc1` [Compound 257, 2-[4-(2-{5-cyano-2-oxo-1,2-dihydrospiro[indole-3,4′-piperidin]-1′-yl}ethoxy)phenyl]-2-methylpropanamide], the EC50 in assay [1] was around 1 µM; in assay [2], 0.256 µM. Besides, on APOL1 G2, the AC50 worked out at 0.974 µM.

In the case of `NC(=O)c1ncc(OCCN2CCC3(CC2)C(=O)Nc2ccc(Cl)cc23)cn1` [Compound 258, 5-(2-{5-chloro-2-oxo-1,2-dihydrospiro[indole-3,4′-piperidin]-1′-yl}ethoxy)pyrimidine-2-carboxamide], the EC50 was around 1.3 µM in assay [1] and 0.444 µM in assay [2]. Besides, on APOL1 G2, the AC50 was determined as 1.05 µM.

As to `CC(COc1ccc(C2(S(C)(=O)=O)COC2)cc1)N1CCC2(CC1)C(=O)Nc1ccc(C#N)cc12` (stereo not drawn) [Compound 262, 1′-{1-[4-(3-methanesulfonyloxetan-3-yl)phenoxy]propan-2-yl}-2-oxo-1,2-dihydrospiro[indole-3,4′-piperidine]-5-carbonitrile], the values for the 50% effective concentration (EC50) in assay [1] and in assay [2] were 1.78 µM and 0.299 µM, respectively. The AC50 at APOL1 G2 was 2.39 µM.

Take `CN(C)c1ncc(OCCN2CCC3(CC2)C(=O)Nc2ccc(Cl)cc23)cn1` [Compound 303, 5-chloro-1′-(2-{[2-(dimethylamino)pyrimidin-5-yl]oxy}ethyl)-1,2-dihydrospiro[indole-3,4′-piperidin]-2-one]: the EC50 in assay [1] is 0.351 µM; in assay [2], 0.156 µM. Besides, the AC50 at APOL1 G2 was 0.822 µM.

On to `O=C1Nc2ccc(Cl)cc2C12CCN(CCOc1cnc(N3CC4(C3)CS(=O)(=O)C4)nc1)CC2` [Compound 304, 6-[5-(2-{5-chloro-2-oxo-1,2-dihydrospiro[indole-3,4′-piperidin]-1′-yl}ethoxy)pyrimidin-2-yl]-2λ^6-thia-6-azaspiro[3.3]heptane-2,2-dione], for which the EC50 in assay [1] was 0.286 µM; in assay [2], 0.134 µM. The AC50 at APOL1 G2 amounted to 1.01 µM.

As for `CC1(O)CC(N2C(=O)CCc3cc(OCCN4CCC5(CC4)C(=O)Nc4ccc(Cl)cc45)cnc32)C1` (stereo not drawn) [Compound 315, 5-chloro-1′-(2-{[8-(3-hydroxy-3-methylcyclobutyl)-7-oxo-5,6,7,8-tetrahydro-1,8-naphthyridin-3-yl]oxy}ethyl)-1,2-dihydrospiro[indole-3,4′-piperidin]-2-one], the EC50 in assay [1] is 0.086 µM; in assay [2] it was 0.0257 µM. For the same compound, on APOL1 G2, the AC50 turned out to be 0.33 µM.

Take `O=C1CCc2cc(OCCN3CCC4(CC3)C(=O)Nc3ccc(C(F)F)cc34)cnc2N1C1CC(CO)C1` (stereo not drawn) [Compound 316, 5-(difluoromethyl)-1′-[2-({8-[3-(hydroxymethyl)cyclobutyl]-7-oxo-5,6,7,8-tetrahydro-1,8-naphthyridin-3-yl}oxy)ethyl]-1,2-dihydrospiro[indole-3,4′-piperidin]-2-one]: the EC50 in assay [1] was 0.0994 µM; in assay [2], 0.0327 µM. Further, on APOL1 G2, the AC50 worked out at 1.15 µM.

As for `CC1(O)CC(CN2C(=O)CCc3cc(OCCN4CCC5(CC4)C(=O)Nc4ccc(C(F)F)cc45)cnc32)C1` (stereo not drawn) [Compound 320, 5-(difluoromethyl)-1′-[2-({8-[(3-hydroxy-3-methylcyclobutyl)methyl]-7-oxo-5,6,7,8-tetrahydro-1,8-naphthyridin-3-yl}oxy)ethyl]-1,2-dihydrospiro[indole-3,4′-piperidin]-2-one], the figures for the EC50 in assay [1] and in assay [2] were 0.0539 µM and 0.0221 µM, respectively. The AC50 on APOL1 G2 was determined as 0.787 µM.

As for `[2H]C([2H])([2H])N1C(=O)C2(CCN(CCOc3ccc(C4CCN(S(C)(=O)=O)CC4)cc3)CC2)c2cc(Cl)ccc21` [Compound 412, 5-chloro-1′-{2-[4-(1-methanesulfonylpiperidin-4-yl)phenoxy]ethyl}-1-(^2H3)methyl-1,2-dihydrospiro[indole-3,4′-piperidin]-2-one], the EC50 in assay [1] is 0.0707 µM; in assay [2], 0.0453 µM. Moreover, the AC50 at APOL1 G2 was 2.9 µM.

With `[2H]C([2H])([2H])N1C(=O)C2(CCN(CCOc3ccc(S(C)(=O)=NC)c(C(F)(F)F)c3)CC2)c2cc(Cl)ccc21` (stereo not drawn) [Compound 413, 5-chloro-1-(^2H3)methyl-1′-(2-{4-[methyl(methylimino)oxo-λ^6-sulfanyl]-3-(trifluoromethyl)phenoxy)ethyl)-1,2-dihydrospiro[indole-3,4′-piperidin]-2-one], the EC50 is 0.208 µM in assay [1] and 0.0603 µM in assay [2]. For the same compound, on APOL1 G2, the AC50 was determined as 0.251 µM.

For the compound `[2H]C([2H])([2H])N1C(=O)C2(CCN(CCOc3ccc(C4(S(=O)(=O)C(C)C)COC4)cc3)CC2)c2cc(Cl)ccc21` [Compound 414, 5-chloro-1-(^2H3)methyl-1′-(2-{4-[3-(propane-2-sulfonyl)oxetan-3-yl]phenoxy}ethyl)-1,2-dihydrospiro[indole-3,4′-piperidin]-2-one], the EC50 in assay [1] was 0.11 µM; in assay [2], 0.0367 µM. In addition, the AC50 at APOL1 G2 stood at 0.347 µM.

Turning to `[2H]C([2H])([2H])N1C(=O)C2(CCN(CCOc3ccc(C4(S(C)(=O)=O)CCC4)cc3)CC2)c2cc(Cl)ccc21` [Compound 415, 5-chloro-1′-{2-[4-(1-methanesulfonylcyclobutyl)phenoxy]ethyl}-1-(^2H3)methyl-1,2-dihydrospiro[indole-3,4′-piperidin]-2-one], the EC50 in assay [1] was 0.0692 µM; in assay [2] it was 0.0203 µM. Besides, the AC50 at APOL1 G2 came out at 0.319 µM.

As for `[2H]C([2H])([2H])N1C(=O)C2(CCN(CCOc3ccc4c(c3)CN(C)C4=O)CC2)c2cc(Cl)ccc21` [Compound 416, 5-chloro-1-(^2H3)methyl-1′-{2-[(2-methyl-1-oxo-2,3-dihydro-1H-isoindol-5-yl)oxy]ethyl}-1,2-dihydrospiro[indole-3,4′-piperidin]-2-one], the EC50 in assay [1] is 0.382 µM; in assay [2], 0.169 µM. Moreover, the AC50 at APOL1 G2 was found to be 0.449 µM.

With `[2H]C([2H])([2H])N1C(=O)C2(CCN(CCOc3cnc4c(c3)CCC(=O)N4CC(C)(C)O)CC2)c2cc(Cl)ccc21` [Compound 417, 5-chloro-1′-(2-{[8-(2-hydroxy-2-methylpropyl)-7-oxo-5,6,7,8-tetrahydro-1,8-naphthyridin-3-yl]oxy}ethyl)-1-(^2H3)methyl-1,2-dihydrospiro[indole-3,4′-piperidin]-2-one], the EC50 in assay [1] is 0.104 µM; in assay [2], 0.0492 µM. Moreover, the AC50 on APOL1 G2 came out at 0.343 µM.

For `[2H]C([2H])([2H])N1C(=O)C2(CCN(CCOc3ccc(S(C)(=O)=O)cc3)CC2)c2cc(Cl)ccc21` [Compound 418], the values for the EC50 in assay [1] and in assay [2] were 0.215 µM and 0.0785 µM, respectively. In addition, the AC50 at APOL1 G2 was 0.309 µM.

For the compound `[2H]C([2H])([2H])N1C(=O)C2(CCN(CCOc3cnc4c(c3)CCC(=O)N4[C@H]3C[C@@](C)(O)C3)CC2)c2cc(Cl)ccc21` [Compound 419, 5-chloro-1-(^2H3)methyl-1′-[2-({7-oxo-8-[(1r,3s)-3-hydroxy-3-methylcyclobutyl]-5,6,7,8-tetrahydro-1,8-naphthyridin-3-yl}oxy)ethyl]-1,2-dihydrospiro[indole-3,4′-piperidin]-2-one], the EC50 was 0.108 µM in assay [1] and 0.0309 µM in assay [2]. Moreover, the concentration at half-maximal activity (AC50) at APOL1 G2 is 0.383 µM.

On to `[2H]C([2H])([2H])N1C(=O)C2(CCN(CCOc3cnc(C4(CO)CC4)nc3)CC2)c2cc(Cl)ccc21` [Compound 420, 5-chloro-1′-[2-({2-[1-(hydroxymethyl)cyclopropyl]pyrimidin-5-yl}oxy)ethyl]-1-(^2H3)methyl-1,2-dihydrospiro[indole-3,4′-piperidin]-2-one], for which the EC50 was 0.144 µM in assay [1] and 0.0647 µM in assay [2]. Moreover, at APOL1 G2, the AC50 came to 0.892 µM.
